Literature values in article PMC5721631 (BMJ Open Ophthalmology, 2017).

System: adrenal cortisol biosynthesis (CYP11B1)
Details: single oral administration

CC(C)(C(=O)c1cccnc1)c1cccnc1 [Metpyrapone, metyrapone]
plasma cortisol reduction from baseline: Up to about 80% plasma cortisol reduction from baseline
